In brackets after ≈: the same amount, converted by molar mass. Several values for one entry are separate records, joined by “and”; a condition that tells them apart may be missing. Equal entries are not always repeated.
How the values were obtained:
Assay type in all cases: functional
Aspergillus fumigatus [1] = experiment: In vitro antifungal activity against Aspergillus fumigatus after 24 hr. incubation
Aspergillus fumigatus [2] = experiment: In vitro for the antifungal activity against Aspergillus fumigatus.
Mus musculus [3] = experiment: Number of mice cured after 10 days against Aspergillus fumigatus on intravenous infection to mice
Mus musculus [4] = experiment: Number of mice surviving due to reduction in kidney fungal burden after 10 days against Aspergillus fumigatus on intravenous infection to mice
Cryptococcus neoformans = experiment: In vitro antifungal activity against Cryptococcus neoformans
Nakaseomyces glabratus = experiment: In vitro antifungal activity against Candida glabrata
Pichia kudriavzevii = experiment: In vitro antifungal activity against Candida krusei
Candida albicans [5] = experiment: In vitro antifungal activity against Candida albicans
Candida albicans [6] = experiment: In vitro antifungal activity against Candida albicans after 24 hr. incubation
[7] = Aspergillus fumigatus, 24 h, read-out: MFC
[8] = Aspergillus fumigatus, read-out: MIC

| Compound | MFC (Aspergillus fumigatus [1]; [7]) [µg/mL] | MIC (Aspergillus fumigatus [2]; [8]) [µg/mL] | No. of cures (Mus musculus [3]) | No. of survivors (Mus musculus [4]) | also measured |
| --- | --- | --- | --- | --- | --- |
| CC(c1ncnc(Cl)c1F)C(O)(Cn1cncn1)c1ccc(F)cc1F (stereo not given) | 3.1 (≈ 8.08 µM) | 3.1 (≈ 8.08 µM) | – | – | – |
| CC(c1ccncn1)C(O)(Cn1cncn1)c1ccc(F)cc1F (stereo not given) | 0.39 (≈ 1.18 µM) | 0.39 (≈ 1.18 µM) | 0 | 3 | – |
| C[C@@H](c1ccncc1)[C@](O)(Cn1cncn1)c1ccc(F)cc1F | 0.09 (≈ 0.272 µM) | 0.05 (≈ 0.151 µM) | 0 | 4 | – |
| CC(c1cccnc1)C(O)(Cn1cncn1)c1ccc(F)cc1F (stereo not given) | – | 0.39 (≈ 1.18 µM) | – | – | – |
| OC(Cc1ccccn1)(Cn1cncn1)c1ccc(F)cc1F (stereo not given) | – | 25 (≈ 79 µM) | – | – | – |
| CC(c1ccncc1F)C(O)(Cn1cncn1)c1ccc(F)cc1F (stereo not given) | 0.19 (≈ 0.545 µM) | 0.098 (≈ 0.281 µM) | 5 | 5 | – |
| CC(c1ncncc1F)C(O)(Cn1cncn1)c1ccc(F)cc1F (stereo not given) | 0.78 (≈ 2.23 µM) | 0.39 (≈ 1.12 µM) | 4 | 5 | – |
| CC(c1ncncc1Cl)C(O)(Cn1cncn1)c1ccc(F)cc1F (stereo not given) | 1.56 (≈ 4.26 µM) | 0.39 (≈ 1.07 µM) | – | – | – |
| CC(n1cncn1)C(O)(Cn1cncn1)c1ccc(F)cc1F (stereo not given) | 25 (≈ 78.1 µM) | 12.5 (≈ 39 µM) | – | – | – |
| OC(Cc1ccncc1)(Cn1cncn1)c1ccc(F)cc1F (stereo not given) | – | 3.1 (≈ 9.8 µM) | – | – | – |
| CC(c1ncnc(Cl)c1Cl)C(O)(Cn1cncn1)c1ccc(F)cc1F (stereo not given) | 12.5 (≈ 31.2 µM) | 3.1 (≈ 7.75 µM) | – | – | – |
| CC(c1ccccn1)C(O)(Cn1cncn1)c1ccc(F)cc1F (stereo in doubt; 23a) | – | – | – | – | MFC (Aspergillus fumigatus [1]): 100 µg/mL (≈ 303 µM); MIC (Aspergillus fumigatus [2]): 12.5 µg/mL (≈ 37.8 µM) |
| CC(c1ccccn1)C(O)(Cn1cncn1)c1ccc(F)cc1F (stereo in doubt; 23b) | – | – | – | – | MFC (Aspergillus fumigatus [1]): 1.56 µg/mL (≈ 4.72 µM); MIC (Aspergillus fumigatus [2]): 0.39 µg/mL (≈ 1.18 µM) |
| OC(Cn1cncn1)(Cn1cncn1)c1ccc(F)cc1F [FLUCONAZOLE] | > 50 | > 50 | – | – | MIC (Cryptococcus neoformans): 9.6 µg/mL (≈ 31.3 µM); MIC (Nakaseomyces glabratus): 1.9 µg/mL (≈ 6.2 µM); MIC (Pichia kudriavzevii): > 25 µg/mL; MIC (Candida albicans [5]): 1 µg/mL (≈ 3.27 µM) |
| CCC(C)n1ncn(-c2ccc(N3CCN(c4ccc(OCC5COC(Cn6cncn6)(c6ccc(Cl)cc6Cl)O5)cc4)CC3)cc2)c1=O (stereo not given) [ITRACONAZOLE] | – | – | 3 | 4 | MIC (Cryptococcus neoformans): 0.39 µg/mL (≈ 0.553 µM); MIC (Nakaseomyces glabratus): 0.19 µg/mL (≈ 0.269 µM); MIC (Pichia kudriavzevii): 0.05 µg/mL (≈ 0.0709 µM); MIC (Aspergillus fumigatus [1]): 0.19 µg/mL (≈ 0.269 µM); MIC (Candida albicans [5]): 0.12 µg/mL (≈ 0.17 µM); MIC (Aspergillus fumigatus [2]): 0.14 µg/mL and 0.39 µg/mL |
| C[C@@H](c1ncncc1F)[C@](O)(Cn1cncn1)c1ccc(F)cc1F [VORICONAZOLE] | – | 0.09 (≈ 0.258 µM) | – | – | MIC (Cryptococcus neoformans): 0.39 µg/mL (≈ 1.12 µM); MIC (Nakaseomyces glabratus): 0.19 µg/mL (≈ 0.544 µM); MIC (Pichia kudriavzevii): 0.24 µg/mL (≈ 0.687 µM); MIC (Candida albicans [6]): 0.03 µg/mL (≈ 0.0859 µM) |
